Assay results from BindingDB's records for doi:10.7270/Q2736PBV (Broad Institute, 2009).

Target: T1, Streptokinase A (Streptococcus pyogenes serotype M1, UniProt P10520)
T1 sequence (P10520 whole entry): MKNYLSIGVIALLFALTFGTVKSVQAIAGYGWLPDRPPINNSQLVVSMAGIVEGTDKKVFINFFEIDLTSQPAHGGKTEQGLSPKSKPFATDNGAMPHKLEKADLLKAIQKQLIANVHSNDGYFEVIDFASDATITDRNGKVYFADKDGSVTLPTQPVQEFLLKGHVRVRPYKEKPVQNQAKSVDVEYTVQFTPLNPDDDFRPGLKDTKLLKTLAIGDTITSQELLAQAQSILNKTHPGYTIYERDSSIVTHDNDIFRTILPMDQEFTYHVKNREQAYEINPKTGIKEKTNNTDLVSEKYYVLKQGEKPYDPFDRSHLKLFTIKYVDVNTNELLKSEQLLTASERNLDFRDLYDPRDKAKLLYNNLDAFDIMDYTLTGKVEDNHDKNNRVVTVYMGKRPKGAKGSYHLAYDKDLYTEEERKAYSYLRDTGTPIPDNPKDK
Assay: S. pyogenes streptokinase expression inhibitors, potency, dose response, plasminogen activation absorbance, OD405 (AID 1914)

Row | Compound | EC50 [µM]
1 | CN(C)c1ccc(C2CC(c3ccc(Cl)cc3OC(F)F)=Nc3ncnn32)cc1 (stereo not given) | > 150
2 | CCc1ccc2[nH]c(=O)c(C3c4ccc5cccnc5c4OC(=N)C3C#N)cc2c1 (stereo not given) | > 150
3 | COc1ccc(OC)c(NC=C2C(=O)NC(=S)N(Cc3ccccc3)C2=O)c1 | > 150
4 | O=C1C=CC([N+](=O)[O-])=CC1/C=N/NC(=O)C(O)(c1ccccc1)c1ccccc1 (stereo not given) | > 150
5 | CCCCCCC(N=O)c1ccccn1 (stereo not given) | > 150
6 | C=CCn1c(-n2c(O)cc(Cc3ccccc3)c2O)nc2ccccc21 | > 150
7 | Cc1cc(C)c(N=Nc2c(C)[nH]n(C(N)=S)c2=O)c(C)c1 | > 150
8 | C=c1c(C#N)c(N)[nH]c2c(C#N)c(C)c(=Cc3ccc(C)cc3)c1=2 | 12.3
9 | C=CCn1c(SCC(=O)C(C#N)C(C)=N)nc2sc(C)c(C)c2c1=O (stereo not given) | > 150
10 | COc1cc(CN=Nc2nc(Nc3ccc(C)cc3)nc(-n3nc(C)cc3C)n2)cc(OC)c1OC | > 150
11 | O=C1Nc2ccccc2SC1C=Nc1cccc(Cl)c1 (stereo not given) | > 150
12 | Cc1nn(-c2ccccc2)c(C)c1CN=Nc1nc2ccccc2[nH]1 | > 150
13 | CCC(C)N1C(=O)C(=CNNc2ccccc2)C(=O)NC1=S (stereo not given) | > 150
14 | O=C(Oc1cccc(CN=Nc2nc(Nc3ccccc3)nc(N3CCOCC3)n2)c1)c1ccco1 | > 150
15 | Cc1sc2ncnc(N=NCc3ccccc3O)c2c1C | 8.21
16 | CC(N=Nc1ccc(Cl)c(Cl)c1)c1ccc(-n2ccnc2)cc1 (stereo not given) | 17.2
17 | CC(N=Nc1nc2ccccc2s1)c1ccc2c(c1)OCO2 (stereo not given) | > 150
18 | N#CC(C(=O)c1ccc([N+](=O)[O-])o1)c1nc2ccccc2[nH]1 (stereo not given) | 27.6
19 | O=C1C([N+](=O)[O-])=CC(Cl)=CC1CN=Nc1nc2ccccc2s1 (stereo not given) | > 150
20 | S=C1N=C(C23CC4CC(CC(C4)C2)C3)CC(c2ccc3c(c2)OCO3)N1 (stereo not given) | 22.5

Row | Compound | EC50 [µM]
21 | O=C1C(=NNC(=S)Nc2ccccc2F)c2ccccc2N1Cc1ccc(F)cc1 | 0.607
22 | CCOc1ccc(NC(=S)NNC2=c3ccccc3=NC2=O)cc1 | > 150
23 | Cc1cc(C)nc(N=NCc2cc(Br)ccc2O)n1 | > 150
24 | COC1=CC([N+](=O)[O-])=CC(/C=N/NC(=O)c2cc(-c3ccccc3)nc3ccccc23)C1=O (stereo not given) | > 150
25 | Cc1cc(N=NC(C)c2ccccc2O)nc(-c2ccccc2O)n1 (stereo not given) | 14
26 | COc1cccc(-n2c(O)c3[nH][nH]c(C(=O)CN4C(=O)c5ccccc5C4=O)c-3c2=O)c1 | > 150
27 | Cc1ccc2nc(-n3c(O)c[nH]c3=S)sc2c1 | > 150
28 | COc1ccc(CC(=O)N/N=C/C2C=C([N+](=O)[O-])C=C(Br)C2=O)cc1 (stereo not given) | > 150
29 | CN(C)c1ccc(CN=Nc2nc3ccccc3o2)cc1 | > 150
30 | O=C(N/N=C/C1C=C([N+](=O)[O-])C=CC1=O)c1cccc(NC(=O)c2cccc(Cl)c2)c1 (stereo not given) | > 150
31 | CCOC(=O)c1sc(N2C(=O)C(=O)C(C(=O)c3ccco3)C2c2cccc(Cl)c2)nc1C (stereo not given) | > 150
32 | CC(=NNC(=N)Sc1cc(O)n(-c2ccc(Cl)c(Cl)c2)c1O)c1cccs1 [1-(3,4-dichlorophenyl)-2,5-dioxo-3-pyrrolidinyl 2-[1-(2-thienyl)ethylidene]hydrazinecarbimidothioate] | 7.44
33 | CCc1ccc2nc(N3C(=O)C(=O)C(C(=O)c4ccco4)C3c3cccs3)sc2c1 (stereo not given) [1-(6-ethyl-1,3-benzothiazol-2-yl)-3-(furan-2-ylcarbonyl)-4-oxidanyl-2-thiophen-2-yl-2H-pyrrol-5-one] | > 150
34 | Oc1cc(N(CCc2ccccc2)C(=S)Nc2ccccc2)c(O)n1-c1ccc(Br)cc1 [1-[1-(4-bromophenyl)-2,5-bis(oxidanylidene)pyrrolidin-3-yl]-3-phenyl-1-(2-phenylethyl)thiourea] | 2.67
35 | O=C1N=c2ccccc2=C1NNC(=S)NCCc1ccccc1 [1-[(2-oxo-3-indolyl)amino]-3-(2-phenylethyl)thiourea] | > 150
36 | O=C1C(=NNC(=S)Nc2ccccc2F)c2ccccc2N1Cc1cccc(Cl)c1 [1-[(Z)-[1-[(3-chlorophenyl)methyl]-2-oxoindol-3-ylidene]amino]-3-(2-fluorophenyl)thiourea] | > 150
37 | C[n+]1ccc(CN=Nc2nc(Cl)c(C#N)c(Cl)c2Cl)cc1 [2,4,5-trichloro-6-[2-[(1-methylpyridin-1-ium-4-yl)methylidene]hydrazinyl]pyridine-3-carbonitrile;chloride] | > 150
38 | CC(N=Nc1nc(-c2ccccc2F)nc2ccccc12)c1ccccc1O (stereo not given) [2-(1-{[2-(2-Fluoro-phenyl)-quinazolin-4-yl]-hydrazono}-ethyl)-phenol] | > 150
39 | COc1ccccc1Nc1oc2cc(=O)ccc-2cc1C(N)=O [2-(2-methoxyanilino)-7-oxo-1-benzopyran-3-carboxamide] | > 150
40 | Cc1ccc(C(=O)C2C(=O)C(=O)N(Cc3ccco3)C2c2cccc(Br)c2)o1 (stereo not given) [2-(3-bromophenyl)-1-(2-furanylmethyl)-4-hydroxy-3-[(5-methyl-2-furanyl)-oxomethyl]-2H-pyrrol-5-one] | > 150

Row | Compound | EC50 [µM]
41 | Oc1nc(Nc2ccc(Cl)cc2)sc1Cc1cccc(Cl)c1Cl [2-(4-chloroanilino)-5-(2,3-dichlorobenzyl)-2-thiazolin-4-one] | 131
42 | Oc1nc(Nc2ccc(Cl)cc2)sc1Cc1cc(Cl)ccc1Cl [2-(4-chloroanilino)-5-(2,5-dichlorobenzyl)-2-thiazolin-4-one] | > 150
43 | Cc1[nH]c2ccccc2c1/C=C1\N=C(c2ccc(F)cc2)OC1=O [2-(4-fluorophenyl)-4-[(2-methyl-1H-indol-3-yl)methylene]-1,3-oxazol-5(4H)-one] | 16.6
44 | Cc1ccc(Nc2nc(N=NCc3ccc4c(c3)OCO4)nc(N3CCOCC3)n2)cc1 [2-N-(1,3-benzodioxol-5-ylmethylideneamino)-4-N-(4-methylphenyl)-6-morpholin-4-yl-1,3,5-triazine-2,4-diamine] | 111
45 | O=C(O)c1ccccc1N=NCc1cc(Br)cc(Br)c1O [2-[2-[(E)-(3,5-dibromo-6-oxocyclohexa-2,4-dien-1-ylidene)methyl]hydrazinyl]benzoic acid] | 32.4
46 | Cc1nn(-c2ccccc2)c(Cl)c1C1C2=C(CCCC2=O)OC(=N)C1C#N (stereo not given) [2-azanyl-4-(5-chloranyl-3-methyl-1-phenyl-pyrazol-4-yl)-5-oxidanylidene-4,6,7,8-tetrahydrochromene-3-carbonitrile] | > 150
47 | Cc1nn(-c2ccccc2)c(Cl)c1C1C2=C(CC(C)(C)CC2=O)OC(=N)C1C#N (stereo not given) [2-azanyl-4-(5-chloranyl-3-methyl-1-phenyl-pyrazol-4-yl)-7,7-dimethyl-5-oxidanylidene-6,8-dihydro-4H-chromene-3-carbonitrile] | > 150
48 | Cc1ccc(NN=C(C=O)C(=O)c2ccc(Cl)cc2)cc1 [3-(4-chlorophenyl)-2-[(4-methylphenyl)hydrazinylidene]-3-oxopropanal] | 50
49 | COc1ccc2nc(-n3c(O)c[nH]c3=S)sc2c1 [3-(6-methoxy-1,3-benzothiazol-2-yl)-2-sulfanylidene-imidazolidin-4-one] | > 150
50 | CCOc1cc(CN=Nc2cccc(C(=O)O)c2)ccc1OC(=O)c1ccccc1 [3-[(N''E)-N''-(4-benzoyloxy-3-ethoxy-benzylidene)hydrazino]benzoic acid] | > 150
51 | CCOC(=O)C1C(=N)Oc2ccc3ccccc3c2C1c1ccc(O)cc1 (stereo not given) [3-amino-1-(4-hydroxyphenyl)-1H-benzo[f][1]benzopyran-2-carboxylic acid ethyl ester] | 11.5
52 | Cc1cccc(NC(=O)C2=C(N)C(C(=O)N3CCOCC3)/C(=N/c3c(C)cccc3C)S2)c1 (stereo not given) [3-amino-5-(2,6-dimethylphenyl)imino-N-(3-methylphenyl)-4-(morpholine-4-carbonyl)-2H-thiophene-2-carboxamide] | 3.32
53 | CCCCCCn1[nH]c(C)c(C(=O)c2ccc(Cl)cc2)c1=O [4-(4-Chloro-benzoyl)-2-hexyl-5-methyl-2,4-dihydro-pyrazol-3-one] | > 150
54 | C=CCOC(=O)C1=C(C)N=C(SCC)C(C#N)C1c1ccc(Cl)cc1 (stereo not given) [4-(4-Chloro-phenyl)-5-cyano-6-ethylsulfanyl-2-methyl-1,4-dihydro-pyridine-3-carboxylic acid allyl ester] | 8.34
55 | C=c1[nH]n(-c2ccccc2)c(=O)c1=C(C=Cc1cccc(OC)c1OC)c1ccc(Br)cc1 [4-[1-(4-Bromo-phenyl)-3-(2,3-dimethoxy-phenyl)-allylidene]-5-methyl-2-phenyl-2,4-dihydro-pyrazol-3-one] | > 150
56 | O=C(O)c1ccc(N=NCc2ccc(OC(=O)c3cccc(Cl)c3)cc2)cc1 [4-[2-[[4-[(3-chlorophenyl)-oxomethoxy]phenyl]methylidene]hydrazinyl]benzoic acid] | > 150
57 | CNC(=Nc1cc(Cl)ccc1Cl)Sc1cc(O)n(-c2ccc(C(=O)OC)cc2)c1O [4-[3-[[(2,5-dichloroanilino)-methyliminomethyl]thio]-2,5-dioxo-1-pyrrolidinyl]benzoic acid methyl ester] | 50
58 | CC(C)(C)c1cc(-c2cs/c(=N\c3ccccc3)n2Cc2ccc(C(=O)O)cc2)cc(C(C)(C)C)c1O [4-[[4-(3,5-ditert-butyl-4-oxidanyl-phenyl)-2-phenylazanyl-1,3-thiazol-3-ium-3-yl]methyl]benzoic acid;bromide] | > 150
59 | CCCCCCCn1[nH]c(C)c(C(=O)c2ccccc2)c1=O [4-benzoyl-2-heptyl-5-methyl-2,4-dihydro-3H-pyrazol-3-one] | > 150
60 | Cc1ccc(NNC2=CS(=O)(=O)N(C)c3ccsc32)cc1 [4-methyl-N-[(1-methyl-2,2-dioxo-4-thieno[3,2-c]thiazinylidene)amino]aniline] | 4.04
